The test addresses T1, human GLP-1 receptor (Homo sapiens, UniProt P43220).
T1 construct: HA (N); expressed in transfected cells
Kind of test: GLP-1 receptor-mediated agonist activity: cAMP level in hGLP-1R/HEK293 cell line (HTRF). Type of test: cell-based. (Cyclic AMP is a second messenger, typically raised through Gs and lowered through Gi signalling.)

The mark [1] stands for this setting: cAMP levels in hGLP-1R/HEK293 cell line, Table 1, read-out: determined EC50.
Where [2] appears, read: cAMP levels of the hGLP-1R/HEK293 cell line, Table 2, comparison with reference compounds, read-out: EC50.

Structures are written as SMILES. Where two headings read alike, the source gives them in different places.

T1 sequence (P43220 24-463): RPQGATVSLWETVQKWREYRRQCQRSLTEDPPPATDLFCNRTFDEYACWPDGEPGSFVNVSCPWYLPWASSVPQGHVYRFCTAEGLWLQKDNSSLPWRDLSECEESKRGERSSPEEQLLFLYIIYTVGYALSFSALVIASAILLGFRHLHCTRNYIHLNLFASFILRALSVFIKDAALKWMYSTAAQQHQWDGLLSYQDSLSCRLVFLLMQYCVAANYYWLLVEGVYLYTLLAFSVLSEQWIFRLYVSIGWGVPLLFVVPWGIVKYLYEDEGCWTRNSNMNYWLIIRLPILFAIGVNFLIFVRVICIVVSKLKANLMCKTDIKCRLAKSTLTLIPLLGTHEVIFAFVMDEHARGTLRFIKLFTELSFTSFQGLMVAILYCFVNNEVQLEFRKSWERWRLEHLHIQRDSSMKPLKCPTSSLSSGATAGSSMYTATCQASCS

As usually defined, the EC50 is the midpoint of the concentration-response curve. As to `CCOc1cc(C(=O)O)cc2c1nc(CN1CCN(c3cccc4c3OC(C)(c3ccc(Cl)cc3OC)O4)C=N1)n2C[C@@H]1CCO1` (stereo partly drawn) [Compound 85, 2-((4-(2-(4-chloro-2-methoxyphenyl)-2-methylbenzo[d][1,3]dioxol-4-yl)-5,6-dihydro-1,2,4-triazin-1(4H)-yl)methyl)-4-ethoxy-1-(((S)-oxetan-2-yl)methyl)-1H-benzo[d]imidazole-6-carboxylic acid], under setting [1], the EC50 was 5 pM.
Regarding `CCOc1cc(C(=O)O)cc2c1nc(CN1CCC(c3cccc(OCc4ccc(C(F)(F)F)cc4OC)n3)CC1)n2C[C@@H]1CCO1` [Compound 52, (S)-4-ethoxy-2-((4-(6-((2-methoxy-4-(trifluoromethyl)benzyl)oxy)pyridin-2-yl)piperidin-1-yl)methyl)-1-(oxetan-2-ylmethyl)-1H-benzo[d]imidazole-6-carboxylic acid], the EC50 under setting [1] worked out at 1.2 pM.
On to `CC1(c2ccc(Cl)cc2F)Oc2cccc(C3CCN(Cc4nc5ccc(C(=O)O)cc5n4C[C@@H]4CCO4)CC3)c2O1` (stereo partly drawn) [WO2019239319 , Example 7, reference compound], for which the EC50 under setting [2] is 22 pM.
For `COc1cc(C(F)(F)F)ccc1C1(C)Oc2cccc(N3C=NN(Cc4nc5c(OC)cc(C(=O)O)cc5n4C[C@@H]4CCO4)CC3)c2O1` (stereo partly drawn) [Compound 88, 4-methoxy-2-((4-(2-(2-methoxy-4-(trifluoromethyl)phenyl)-2-methylbenzo[d][1,3]dioxol-4-yl)-5,6-dihydro-1,2,4-triazin-1(4H)-yl)methyl)-1-(((S)-oxetan-2-yl)methyl)-1H-benzo[d]imidazole-6-carboxylic acid], under setting [1], the EC50 amounted to 8.7 pM.
On to `COc1cc(C#N)ccc1COc1cccc(C2CCN(Cc3nc4c(OC)cc(C(=O)O)cc4n3C[C@@H]3CCO3)CC2)c1` [Compound 42, (S)-2-((4-(3-((4-cyano-2-methoxybenzyl)oxy)phenyl)piperidin-1-yl)methyl)-4-methoxy-1-(oxetan-2-ylmethyl)-1H-benzo[d]imidazole-6-carboxylic acid], for which the EC50 under setting [1] came out at 29.8 pM.
As to `[2H]C([2H])([2H])C([2H])([2H])Oc1cc(C(=O)O)cc2c1nc(CN1CCN(c3cccc4c3OC(C)(c3ccc(Cl)c(F)c3F)O4)C=N1)n2C[C@@H]1CCO1` (stereo partly drawn) [Compound 77, 2-((4-(2-(4-chloro-2,3-difluorophenyl)-2-methylbenzo[d][1,3]dioxol-4-yl)-5,6-dihydro-1,2,4-triazin-1(4H)-yl)methyl)-4-(ethoxy-d5)-1-(((S)-oxetan-2-yl)methyl)-1H-benzo[d]imidazole-6-carboxylic acid], under setting [1], the EC50 was found to be 16.5 pM.
As for `COc1cc(C(=O)O)cc2c1nc(CN1CCC(c3cccc(OCc4ccc(Cl)c5c4OCC5)n3)CC1)n2C[C@@H]1CCO1` [Compound 16, (S)-2-((4-(6-((4-chloro-2,3-dihydrobenzofuran-7-yl)methoxy)pyridin-2-yl)piperidin-1-yl)methyl)-4-methoxy-1-(oxetan-2-ylmethyl)-1H-benzo[d]imidazole-6-carboxylic acid], the EC50 under setting [1] came out at 3.3 pM.
For the compound `COc1cc(C(=O)O)cc2c1nc(CN1CCN(c3cccc4c3OC(C)(c3ccc(C(F)(F)F)cn3)O4)C=N1)n2C[C@@H]1CCO1` (stereo partly drawn) [Compound 65, 4-methoxy-2-((4-(2-methyl-2-(5-(trifluoromethyl)pyridin-2-yl)benzo[d][1,3]dioxol-4-yl)-5,6-dihydro-1,2,4-triazin-1(4H)-yl)methyl)-1-(((S)-oxetan-2-yl)methyl)-1H-benzo[d]imidazole-6-carboxylic acid], the EC50 under setting [1] amounted to 49 pM.
Consider `[2H]C([2H])([2H])Oc1cc(C(=O)O)cc2c1nc(CN1CCN(c3cccc4c3OC(C)(c3ccc(C(F)(F)F)cc3OC)O4)C=N1)n2C[C@@H]1CCO1` (stereo partly drawn) [Compound 89, 4-(Methoxy-d3)-2-((4-(2-(2-methoxy-4-(trifluoromethyl)phenyl)-2-methylbenzo[d][1,3]dioxol-4-yl)-5,6-dihydro-1,2,4-triazin-1(4H)-yl)methyl)-1-(((S)-oxetan-2-yl)methyl)-1H-benzo[d]imidazole-6-carboxylic acid], for which, under setting [1], the EC50 came out at 7.5 pM.
With `COc1cc(C(=O)O)cc2c1nc(CN1CCC(c3cccc4c3OC(C)(c3ccc(Cl)cn3)O4)CC1)n2C[C@@H]1CCO1` (stereo partly drawn) [Compound 38, 2-((4-(2-(5-chloropyridin-2-yl)-2-methylbenzo[d][1,3]dioxol-4-yl)piperidin-1-yl)methyl)-4-methoxy-1-(((S)-oxetan-2-yl)methyl)-1H-benzo[d]imidazole-6-carboxylic acid], under setting [1], the EC50 is 22.9 pM.
The same measure, in the same setting: to `CCOc1cc(C(=O)O)cc2c1nc(CN1CCC(c3cccc(OCc4ccc(C(F)(F)F)cc4F)n3)CC1)n2C[C@@H]1CCO1` [Compound 28, (S)-4-ethoxy-2-((4-(6-((2-fluoro-4-(trifluoromethyl)benzyl)oxy)pyridin-2-yl)piperidin-1-yl)methyl)-1-(oxetan-2-ylmethyl)-1H-benzo[d]imidazole-6-carboxylic acid] belongs 7.4 pM; to `COc1cc(C#N)ccc1COc1ccccc1C1CCN(Cc2nc3c(OC)cc(C(=O)O)cc3n2C[C@@H]2CCO2)CC1` [Compound 44, (S)-2-((4-(2-((4-cyano-2-methoxybenzyl)oxy)phenyl)piperidin-1-yl)methyl)-4-methoxy-1-(oxetan-2-ylmethyl)-1H-benzo[d]imidazole-6-carboxylic acid], 9.5 pM; to `CCOc1cc(C(=O)O)cc2c1nc(CN1CCN(c3cccc(OCc4ccc(Cl)cc4F)n3)C=N1)n2C[C@@H]1CCO1` [Compound 21, (S)-2-((4-(6-((4-chloro-2-fluorobenzyl)oxy)pyridin-2-yl)-5,6-dihydro-1,2,4-triazin-1(4H)-yl)methyl)-4-ethoxy-1-(oxetan-2-ylmethyl)-1H-benzo[d]imidazole-6-carboxylic acid], 1 pM.
On to `COc1cc(Cl)ccc1C1(C)Oc2cccc(N3C=NN(Cc4nc5c(OC)cc(C(=O)O)cc5n4C[C@@H]4CCO4)CC3)c2O1` (stereo partly drawn) [Compound 83, 2-((4-(2-(4-chloro-2-methoxyphenyl)-2-methylbenzo[d][1,3]dioxol-4-yl)-5,6-dihydro-1,2,4-triazin-1(4H)-yl)methyl)-4-methoxy-1-(((S)-oxetan-2-yl)methyl)-1H-benzo[d]imidazole-6-carboxylic acid], for which the EC50 under setting [1] was 9.2 pM.
Consider `CCOc1cc(C(=O)O)cc2c1nc(CN1CCC(c3cccc4c3OC(C)(c3ccc(Cl)cc3F)O4)CC1)n2C[C@@H]1CCO1` (stereo partly drawn) [Compound 37, 2-((4-(2-(4-chloro-2-fluorophenyl)-2-methylbenzo[d][1,3]dioxol-4-yl)piperidin-1-yl)methyl)-4-ethoxy-1-(((S)-oxetan-2-yl)methyl)-1H-benzo[d]imidazole-6-carboxylic acid], for which the EC50 under setting [1] stood at 6.7 pM.
As to `CC1(c2ccc(Cl)cc2F)Oc2cccc(N3C=NN(Cc4nc5ccc(C(=O)O)cc5n4C[C@@H]4CCO4)CC3)c2O1` (stereo partly drawn) [CN2022114139828 , Compound 37, reference compound], the EC50 under setting [2] was found to be 137 pM.
For the compound `CCOc1cc(C(=O)O)cc2c1nc(CN1CCN(c3cccc4c3OC(C)(c3ccc(C(F)(F)F)cc3OC)O4)C=N1)n2C[C@@H]1CCO1` (stereo partly drawn) [Compound 90, 4-ethoxy-2-((4-(2-(2-methoxy-4-(trifluoromethyl)phenyl)-2-methylbenzo[d][1,3]dioxol-4-yl)-5,6-dihydro-1,2,4-triazin-1(4H)-yl)methyl)-1-(((S)-oxetan-2-yl)methyl)-1H-benzo[d]imidazole-6-carboxylic acid], under setting [1], the 50% effective concentration (EC50) came to 6.1 pM.
As to `O=C(O)c1ccc2nc(CN3CCC(c4cccc(OCc5ccc(Cl)cc5F)n4)CC3)n(C[C@@H]3CCO3)c2c1` [WO2018109607 , Example 3A-01, reference compound], the EC50 under setting [2] was 32.7 pM.
In the case of `COc1cc(C(=O)O)cc2c1nc(CN1CCC(c3cccnc3OCc3ccc(C#N)c4c3OCC4)CC1)n2C[C@@H]1CCO1` [Compound 35, (S)-2-((4-(2-((4-cyano-2,3-dihydrobenzofuran-7-yl)methoxy)pyridin-3-yl)piperidin-1-yl)methyl)-4-methoxy-1-(oxetan-2-ylmethyl)-1H-benzo[d]imidazole-6-carboxylic acid], the EC50 under setting [1] amounted to 8.2 pM.
In the case of `COc1cc(C#N)ccc1COc1ncccc1C1CCN(Cc2nc3c(OC)cc(C(=O)O)cc3n2C[C@@H]2CCO2)CC1` [Compound 34, (S)-2-((4-(2-((4-cyano-2-methoxybenzyl)oxy)pyridin-3-yl)piperidin-1-yl)methyl)-4-methoxy-1-(oxetan-2-ylmethyl)-1H-benzo[d]imidazole-6-carboxylic acid], the EC50 under setting [1] was 3.3 pM.
For the compound `COc1cc(C(=O)O)cc2c1nc(CN1CCC(c3cccc(OCc4ccc(C#N)cc4F)n3)CC1)n2C[C@@H]1CCO1` [Compound 1, (S)-2-((4-(6-((4-cyano-2-fluorobenzyl)oxy)pyridin-2-yl)piperidin-1-yl)methyl)-4-methoxy-1-(oxetan-2-ylmethyl)-1H-benzo[d]imidazole-6-carboxylic acid], the EC50 under setting [1] worked out at 4.8 pM.
As for `COc1cc(C(=O)O)cc2c1nc(CN1CCN(c3cccc(OCc4ccc(Cl)cc4F)n3)CC1)n2C[C@@H]1CCO1` [Compound 30, (S)-2-((4-(6-((4-chloro-2-fluorobenzyl)oxy)pyridin-2-yl)piperazin-1-yl)methyl)-4-methoxy-1-(oxetan-2-ylmethyl)-1H-benzo[d]imidazole-6-carboxylic acid], the EC50 under setting [1] amounted to 9.6 pM.
For the compound `[2H]C([2H])([2H])Oc1cc(C(=O)O)cc2c1nc(CN1CCN(c3cccc4c3OC(C)(c3ccc(Cl)cc3F)O4)C=N1)n2C[C@@H]1CCO1` (stereo partly drawn) [Compound 71, 2-((4-(2-(4-chloro-2-fluorophenyl)-2-methylbenzo[d][1,3]dioxol-4-yl)-5,6-dihydro-1,2,4-triazin-1(4H)-yl)methyl)-4-(methoxy-d3)-1-(((S)-oxetan-2-yl)methyl)-1H-benzo[d]imidazole-6-carboxylic acid], the EC50 under setting [1] amounted to 17.5 pM.
Still for that read-out and setting: to `CCOc1cc(C(=O)O)cc2c1nc(CN1CCN(c3cccc4c3OC(C)(c3ccc(Cl)cn3)O4)C=N1)n2C[C@@H]1CCO1` (stereo partly drawn) [Compound 69, 2-((4-(2-(5-chloropyridin-2-yl)-2-methylbenzo[d][1,3]dioxol-4-yl)-5,6-dihydro-1,2,4-triazin-1(4H)-yl)methyl)-4-ethoxy-1-(((S)-oxetan-2-yl)methyl)-1H-benzo[d]imidazole-6-carboxylic acid] belongs 11.1 pM.

The values are drawn from patent publication EP4650353A1 (Shanghai Institute of Materia Medica, Chinese Academy of …, priority 2023, dated 2024).
